From ChEMBL document CHEMBL1201862, “PubChem BioAssay data set” (2004)
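Interpolation was linear, between the two tested concentrations surrounding the appropriate level; five concentrations were tested over 48 hours in 96-well plates. The concentration for 50% growth inhibition is given as GI50.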 Calls of active or inactive are those of the source. Cut-off read from the data, not from the text of the source: active = GI50 up to about 1.1 µM and inactive = higher.

Key:
Assay in all cases: inhibition of tumour cell growth, NCI panel, 48 h
[1] = test system: SF-295
[2] = test system: PC-3
[3] = test system: NCI-H522
[4] = test system: HOP-92
[5] = test system: SW-620
[6] = test system: UACC-62
[7] = test system: SNB-19
[8] = test system: M14
[9] = test system: MCF7
[10] = test system: EKVX
[11] = test system: KM12
[12] = test system: CAKI-1
[13] = test system: MDA-MB-231
[14] = test system: OVCAR-8
[15] = test system: NCI-H460
[16] = test system: HOP-62
[17] = test system: UO-31
[18] = test system: SK-MEL-28
[19] = test system: MDA-N
[20] = test system: HL-60
[21] = test system: RPMI-8226
[22] = test system: HT-29
[23] = test system: SK-MEL-5
[24] = test system: ACHN
[25] = test system: SF-539
[26] = test system: OVCAR-4
[27] = test system: OVCAR-5
[28] = test system: TK-10
[29] = test system: U-251
[30] = test system: T47D
[31] = test system: RXF 393
[32] = test system: CCRF-CEM
[33] = test system: NCI-H226
[34] = test system: Malme-3M
[35] = test system: IGROV-1
[36] = test system: NCI/ADR-RES
[37] = test system: COLO 205
[38] = test system: 786-0
[39] = test system: NCI-H23
[40] = test system: OVCAR-3
[41] = test system: Hs-578T
[42] = test system: SN12C
[43] = test system: HCT-116
[44] = test system: SF-268
[45] = test system: SK-MEL-2
[46] = test system: HCC 2998
[47] = test system: SK-OV-3
[48] = test system: DU-145
[49] = test system: BT-549
[50] = test system: SNB-75
[51] = test system: UACC-257
[52] = test system: LOX IMVI
[53] = test system: K562
[54] = test system: A498
[55] = test system: HCT-15
[56] = test system: A549
[57] = test system: MDA-MB-435
[58] = test system: MOLT-4

Measured: GI50

COc1cc(OC)c(/C=C/c2cnc3ccccc3n2)c(OC)c1
inactive: [1] > 10 µM | [2] > 10 µM | [3] > 10 µM | [4] > 10 µM | [5] > 10 µM | [6] > 10 µM | [7] > 10 µM | [8] > 10 µM | [9] > 10 µM | [10] > 10 µM | [11] > 10 µM | [12] > 10 µM | [13] > 10 µM | [14] > 10 µM | [15] > 10 µM | [16] > 10 µM | [18] > 10 µM | [19] > 10 µM | [20] > 10 µM | [21] > 10 µM | [22] > 10 µM | [23] > 10 µM | [24] > 10 µM | [25] > 10 µM | [26] > 10 µM | [27] > 10 µM | [28] > 10 µM | [29] > 10 µM | [30] > 10 µM | [31] > 10 µM | [32] > 10 µM | [33] > 10 µM | [34] > 10 µM | [35] > 10 µM | [36] > 10 µM | [37] > 10 µM | [38] > 10 µM | [39] > 10 µM | [40] > 10 µM | [41] > 10 µM | [42] > 10 µM | [43] > 10 µM | [44] > 10 µM | [45] > 10 µM | [46] > 10 µM | [47] > 10 µM | [48] > 10 µM | [49] > 10 µM | [50] > 10 µM | [51] > 10 µM | [52] > 10 µM | [53] > 10 µM | [54] > 10 µM | [56] > 10 µM | [57] > 10 µM
active: [17] 0.0561 µM
> 10 µM: [55]

CC(=O)N(C(=O)CC(=O)N1N=C(c2ccccc2)C(/N=N/c2ccccc2[N+](=O)[O-])C1=O)c1ccc(Cl)cc1 (stereo unspecified)
> 10 µM: [55]
inactive: [1] > 10 µM | [2] > 10 µM | [3] > 10 µM | [4] > 10 µM | [5] > 10 µM | [58] > 10 µM | [6] > 10 µM | [7] > 10 µM | [9] > 10 µM | [10] > 10 µM | [11] > 10 µM | [12] > 10 µM | [13] > 10 µM | [14] > 10 µM | [15] > 10 µM | [16] > 10 µM | [17] > 10 µM | [18] > 10 µM | [19] > 10 µM | [20] > 10 µM | [21] > 10 µM | [22] > 10 µM | [23] > 10 µM | [24] > 10 µM | [25] > 10 µM | [26] > 10 µM | [27] > 10 µM | [28] > 10 µM | [29] > 10 µM | [30] > 10 µM | [31] > 10 µM | [32] > 10 µM | [33] > 10 µM | [34] > 10 µM | [35] > 10 µM | [36] > 10 µM | [37] > 10 µM | [38] > 10 µM | [39] > 10 µM | [40] > 10 µM | [41] > 10 µM | [42] > 10 µM | [43] > 10 µM | [44] > 10 µM | [45] > 10 µM | [46] > 10 µM | [47] > 10 µM | [48] > 10 µM | [49] > 10 µM | [50] 9.55 µM | [51] > 10 µM | [52] > 10 µM | [53] > 10 µM | [54] > 10 µM | [56] > 10 µM | [57] > 10 µM

O=C(O)CCC(=O)Nc1ccc2ccccc2c1
> 100 µM: [55]
inactive: [1] > 100 µM | [2] > 100 µM | [3] > 100 µM | [4] > 100 µM | [5] > 100 µM | [58] > 100 µM | [6] > 100 µM | [7] > 100 µM | [8] > 100 µM | [9] > 100 µM | [10] > 100 µM | [11] > 100 µM | [12] > 100 µM | [13] > 100 µM | [14] > 100 µM | [15] > 100 µM | [16] > 100 µM | [17] > 100 µM | [18] > 100 µM | [19] > 100 µM | [20] > 100 µM | [21] > 100 µM | [22] > 100 µM | [23] > 100 µM | [24] > 100 µM | [26] > 100 µM | [27] > 100 µM | [28] > 100 µM | [29] > 100 µM | [30] > 100 µM | [31] > 100 µM | [32] > 100 µM | [33] > 100 µM | [34] > 100 µM | [35] > 100 µM | [36] > 100 µM | [37] > 100 µM | [38] > 100 µM | [39] > 100 µM | [40] > 100 µM | [41] > 100 µM | [42] > 100 µM | [43] > 100 µM | [44] > 100 µM | [45] > 100 µM | [46] > 100 µM | [47] > 100 µM | [48] > 100 µM | [49] > 100 µM | [50] > 100 µM | [51] > 100 µM | [52] > 100 µM | [53] > 100 µM | [54] > 100 µM | [56] > 100 µM | [57] > 100 µM

CCC(C)C(C(=O)N/N=C1/SCC(=O)N1C)C(=O)N/N=C1/SCC(=O)N1C (stereo unspecified)
> 100 µM: [55]
inactive: [1] > 100 µM | [2] > 100 µM | [3] > 100 µM | [4] > 100 µM | [5] > 100 µM | [58] > 100 µM | [6] > 100 µM | [7] > 100 µM | [8] > 100 µM | [9] > 100 µM | [10] > 100 µM | [11] > 100 µM | [12] > 100 µM | [13] > 100 µM | [14] > 100 µM | [15] > 100 µM | [16] > 100 µM | [17] > 100 µM | [18] > 100 µM | [19] > 100 µM | [20] 2.04 µM | [21] > 100 µM | [22] > 100 µM | [23] > 100 µM | [24] > 100 µM | [25] > 100 µM | [26] > 100 µM | [27] > 100 µM | [28] > 100 µM | [29] > 100 µM | [30] > 100 µM | [31] > 100 µM | [33] > 100 µM | [34] > 100 µM | [35] > 100 µM | [36] > 100 µM | [37] > 100 µM | [38] > 100 µM | [39] > 100 µM | [40] > 100 µM | [41] > 100 µM | [42] > 100 µM | [43] > 100 µM | [44] > 100 µM | [45] > 100 µM | [46] > 100 µM | [47] > 100 µM | [48] > 100 µM | [49] > 100 µM | [50] > 100 µM | [51] > 100 µM | [52] > 100 µM | [53] > 100 µM | [54] > 100 µM | [56] > 100 µM | [57] > 100 µM

N#CCCN(CCC#N)c1ccc(/C=C2\N=C(c3ccccc3)N(c3ccccc3)C2=O)cc1
inactive: [1] > 100 µM | [2] 17 µM | [3] 18.7 µM | [4] 5.19 µM | [5] > 100 µM | [58] 8.59 µM | [6] > 100 µM | [7] > 100 µM | [8] > 100 µM | [9] > 100 µM | [10] > 100 µM | [11] > 100 µM | [13] > 100 µM | [14] > 100 µM | [15] 2.1 µM | [16] > 100 µM | [17] > 100 µM | [18] > 100 µM | [19] > 100 µM | [20] 3.07 µM | [21] 8.36 µM | [22] 8.97 µM | [23] 4.38 µM | [24] > 100 µM | [25] 6.11 µM | [26] > 100 µM | [27] > 100 µM | [28] > 100 µM | [29] > 100 µM | [30] > 100 µM | [31] > 100 µM | [32] 2.26 µM | [33] > 100 µM | [34] > 100 µM | [35] 25.8 µM | [36] > 100 µM | [37] 9.38 µM | [38] 17 µM | [40] > 100 µM | [41] 19.3 µM | [42] > 100 µM | [43] 5.93 µM | [45] > 100 µM | [47] > 100 µM | [48] > 100 µM | [49] 57.1 µM | [51] > 100 µM | [52] 7.21 µM | [53] 18.5 µM | [54] > 100 µM | [56] > 100 µM | [57] > 100 µM
6.25 µM: [55]
